The numbers were not newly measured in patent US20140296155A1, “ANTI-STRETCH MARK SKIN CREAM AND METHOD FOR MAKING AND USING THEREOF” (priority 2011, published 2014), which cites them from elsewhere.

This data set relates to Type 1 and Type 3 collagen.

Structures are written as SMILES.

As for `O=C1O[C@H]([C@@H](O)CO)C(O)=C1O` [Vitamin C, Ascorbic Acid], the “collagen formation over control levels” value is 3-4 fold.
